Molecules are shown by their SMILES. Active and inactive are the calls of the source.

Assay [1] deals with Schistosoma mansoni. The assay can be described thus: In vitro activity screen on S. mansoni schistosomula at 10 uM. Compound-induced effects were assessed by quantifying larva motility and phenotype using Roboworm. The assay is classed as functional, organism-based. On the set-up: test concentration 10 uM, temperature 37 degree C, time incubation 72 h. To be noted: Puerto Rican.

In assay [2] the test system is Schistosoma mansoni. The assay can be described thus: Ex vivo activity screen on S. mansoni adult worms at 20 uM. Parasite motility after compound treatment was assessed at 72 h using the WHO-TDR scoring metric. The assay is classed as functional, organism-based. More on the design: test concentration 20 uM, temperature 37 degree C. The settings on record: Puerto Rican.

For the compound `CN(C)C(=O)/C=C/C(=O)c1ccc(SCc2ccc(Cl)cc2Cl)cc1`, the In vitro activity result in assay [1] is “Active”. In addition, the Ex-vivo screening entry in assay [2] was “inactive”.

Regarding `COc1cc(OC)c(CCNC(=O)c2cn3cc(-c4cc(OCC#N)ccc4OC)nc3s2)c(OC)c1`, the In vitro activity entry in assay [1] is “Active”. The Ex-vivo screening entry in assay [2] was “inactive”.

Consider `COc1cc(C(=O)N(C)C)ccc1-c1cc2nccc(-c3ccc4ccncc4c3)c2o1`, for which the In vitro activity entry in assay [1] was “inactive”. Same read-out and setting: under `COc1nc(/C=C/c2nc3n(n2)CCCC3c2ccccc2C(F)(F)F)ccc1-n1cnc(C)c1` (stereo not drawn) stands “inactive”.

Turning to `COc1cc(OC)c(CCNC(=O)c2cn3cc(-c4cc(OCC(N)=O)ccc4OC)nc3s2)c(OC)c1`, in assay [1], the In vitro activity result was “inactive”. On the same count and under the same terms, under `COCc1cc(-c2nc(-c3cccc(CN(C)CC(=O)O)c3)no2)ccc1-c1ccccc1` stands “inactive”. The same measure, in the same setting: with `Cc1cc(Oc2cccnc2)c([N+](=O)[O-])cc1C(=O)N=C(N)N` the entry was “inactive”; with `CC(C)(Sc1nc(-c2ccccc2)c(-c2ccccc2)s1)C(=O)O`, “inactive”; with `Cc1cc2c(cc1C(=O)N=C(N)N)S(=O)(=O)C(C)(C)CO2`, “inactive”.

For `COCc1cc(-c2nc(-c3cccc(CN(C)CC(=O)O)c3)no2)ccc1N1CCCCC1`, the In vitro activity entry in assay [1] was “inactive”. Same read-out and setting: with `Cn1cc(-c2cnc3[nH]cc(-c4cn(Cc5cccc(F)c5F)nn4)c3c2)cn1` the entry was “inactive”. In the case of `CC1=C(C(=O)N2CCc3ncc(C(F)(F)F)cc3C2)C2(CCN(C3CCC(O)CC3)CC2)OC1=O` (stereo not drawn), in assay [1], the In vitro activity result was “inactive”. On to `COCc1cc(-c2nc(-c3cccc(CN(C)CCC(=O)O)c3)no2)ccc1N1CCCCC1C` (stereo not drawn), for which the In vitro activity entry in assay [1] is “inactive”.

For the compound `COCc1cc(-c2nc(-c3cc(F)cc(CN(C)CCC(=O)O)c3)no2)ccc1-c1ccccc1C`, the In vitro activity entry in assay [1] was “inactive”. Same read-out and setting: under `CCN(CCC(=O)O)Cc1cccc(-c2noc(-c3ccc(-c4ccccc4C)c(COC)c3)n2)c1` stands “inactive”. With `CCOc1cc(-c2nc(-c3ccc(CN(C)CC(=O)O)cc3)no2)ccc1-c1ccccc1C`, the In vitro activity result in assay [1] is “inactive”. Still for that read-out and setting: under `CCOc1cc(-c2nc(-c3ccc(CN(C)CC(=O)O)c(F)c3)no2)ccc1-c1ccccc1C` stands “inactive”; under `CC1=C(C(=O)N2CCc3ncc(C(F)(F)F)cc3C2)C2(CCN(C3CCCCC3)CC2)OC1=O`, “inactive”; under `Cc1cc(OC(C)(C)C)c(S(C)(=O)=O)cc1C(=O)N=C(N)N`, “inactive”. Regarding `CC1=C(C(=O)N2CCc3c(F)cc(C(F)(F)F)cc3C2)C2(CCN(C3CCOCC3)CC2)OC1=O`, the In vitro activity entry in assay [1] is “inactive”.

Consider `CC(c1ccc2c(c1)CCC2)N1CCN(c2ccccc2)CC1` (stereo not drawn), for which the In vitro activity result in assay [1] is “inactive”.

Take `CCC(C)Oc1ccc(-c2nc(-c3cc(F)cc(CN(C)CCC(=O)O)c3)no2)cc1COC` (stereo not drawn): the In vitro activity result in assay [1] was “inactive”. On the same count and under the same terms, with `CC1=C(C(=O)N2CCc3ncc(C(F)(F)F)cc3C2)C2(CCN(C3CCCC3)CC2)OC1=O` the entry was “inactive”. With `COCc1cc(-c2nc(-c3cccc(CN(C)CC(=O)O)c3)no2)ccc1N1CCCC1C` (stereo not drawn), the In vitro activity result in assay [1] is “inactive”. Same read-out and setting: under `CCCCCCN(Cc1ccc(C#Cc2ccc(CCCC)cc2)cc1)C(=O)c1ccc(O)c(C(=O)O)c1` stands “inactive”; under `C=CC(C)c1cc(C)c(C(=O)N=C(N)N)cc1S(C)(=O)=O` (stereo not drawn), “inactive”; under `CCCCc1nc2ccn(Cc3ccccc3C(=O)O)c(=O)c2n1Cc1ccc(-c2ccccc2-c2nn[nH]n2)cc1`, “inactive”. For the compound `COc1cc(OC)c(CCNC(=O)c2cn3cc(-c4cc(OCC(=O)NCCO)ccc4OC)nc3s2)c(OC)c1`, the In vitro activity entry in assay [1] was “inactive”. As to `Cc1cc(OC(F)(F)F)c(S(C)(=O)=O)cc1C(=O)N=C(N)N`, the In vitro activity result in assay [1] is “inactive”.

Regarding `COc1ccc(OC)c(CCNC(=O)c2cn3cc(-c4cc(OC)ccc4OC)nc3s2)c1`, in assay [1], the In vitro activity entry is “inactive”.

With `COc1nc(/C=C/c2nc3n(n2)CCC[C@@H]3c2ccccc2C(F)(F)F)ccc1-n1cnc(C)c1`, in assay [1], the In vitro activity result is “inactive”. As to `O=S(=O)(Nc1ccc2nsnc2c1)c1ccccc1-c1ccccc1`, the In vitro activity result in assay [1] is “inactive”.

For the compound `CCc1cc(C(=O)NCc2ccc(OC)c(Cl)c2)c(NC(=O)c2ccc(C(=O)O)cc2)s1`, the In vitro activity entry in assay [1] was “inactive”. Same read-out and setting: under `O=c1nc(Nc2cccc(Oc3ccncc3)c2)[nH]c2ccccc12` stands “inactive”; under `COc1cc([S+](C)[O-])ccc1-c1nc2cnccc2[nH]1` (stereo not drawn), “inactive”; under `CC(/C=C/c1cc(/C=C/C(C)=C/C(=O)O)cc(-c2ccc(C(F)(F)F)cc2)c1)=C\C(=O)O`, “inactive”. The same measure, in the same setting: with `Cc1cc2c(cc1C(=O)N=C(N)N)S(=O)(=O)CCC2C` (stereo not drawn) the entry was “inactive”; with `COc1ccc(C2=NN(C(=O)c3ccc(NC(=O)c4ccncc4)cc3)CCC2)cc1OC1CCCC1`, “inactive”; with `COc1ccc(CNc2nc(-c3ccc(C(=O)O)cc3)nc3sc4c(c23)CCCC4)cc1Cl`, “inactive”. `COCc1cc(-c2nc(-c3ccc(C(=O)O)c(F)c3)no2)ccc1-c1cc(F)ccc1OC`: in assay [1], the In vitro activity result is “inactive”. Still for that read-out and setting: with `CCN1CCC2(CC1)OC(=O)C(C)=C2C(=O)N1CCc2ccc(C(F)(F)F)cc2C1` the entry was “inactive”. On to `CC1=C(C(=O)N2Cc3cc(C(F)(F)F)ccc3C3(CC3)C2)C2(CCN(C3CCOCC3)CC2)OC1=O`, for which, in assay [1], the In vitro activity result is “inactive”. Turning to `CCNC1=N[C@@H]2[C@@H](O)[C@H](O)[C@@H](Cn3cc(COc4ccc(Cl)cc4)nn3)O[C@@H]2S1`, the In vitro activity result in assay [1] is “inactive”. The same measure, in the same setting: with `COc1ccc(CNc2nc(CCCCC(=O)O)nc3sc4ccccc4c23)cc1Cl` the entry was “inactive”; with `Cc1ccccc1-c1ccc(-c2nc(-c3ccc(CN(C)CCC(=O)O)cc3)no2)cc1C(F)(F)F`, “inactive”; with `CC1=C(C(=O)N2CCc3ncc(C(F)(F)F)cc3C2)C2(CCN([C@H]3CC[C@@H](O)CC3)CC2)OC1=O`, “inactive”. The same measure, in the same setting: with `CCCCCCN(Cc1ccc(C#Cc2ccc(CCCC)cc2)cc1)c1ccc(F)c(C(=O)O)c1` the entry was “inactive”; with `COc1ccc(C2=NN(C(=O)c3ccc(NC(=O)c4cccnc4)cc3)CCC2)cc1OC1CCCC1`, “inactive”; with `COc1ccc(N2C[C@H](CN3CCC(O)(c4ccc5c(c4)OCO5)CC3)OC2=O)cc1`, “inactive”.

With `CCN(CCC(=O)O)Cc1cccc(-c2noc(-c3ccc(-c4ccccc4F)c(COC)c3)n2)c1`, the In vitro activity result in assay [1] is “inactive”. Turning to `Cc1cc2c(NCc3ccc4c(c3)OCO4)nc(-c3ccc(C(=O)O)cc3)nc2s1`, the In vitro activity entry in assay [1] was “inactive”. Still for that read-out and setting: under `CC1=C(C(=O)N2CCc3ccc(C(F)(F)F)cc3C2)C2(CCN(C3CCCC3)CC2)OC1=O` stands “inactive”; under `CC1(C)C=C(n2ccccc2=O)c2cc(C#N)ccc2O1`, “inactive”; under `COc1ccc(CNc2nc(-c3ccc(S(=O)(=O)O)cc3)nc3sc4c(c23)CCCC4)cc1Cl`, “inactive”.

Take `CCNC1=N[C@@H]2[C@@H](O)[C@H](O)[C@@H](Cn3cc(COc4cccc(Br)c4)nn3)O[C@@H]2S1`: in assay [1], the In vitro activity result was “inactive”. Still for that read-out and setting: with `O=C(O)Cc1ccc(-c2nc(NCc3ccc4c(c3)OCO4)c3c4c(sc3n2)CCCC4)cc1` the entry was “inactive”.

Take `CCCCC[C@H](O)/C=C/[C@H]1CCC(=O)N1CCc1ccc(C(=O)O)cc1`: the In vitro activity result in assay [1] is “inactive”. Turning to `CC1=C(C(=O)N2COc3ccc(C(F)(F)F)cc3C2)C2(CCN(C(C)C)CC2)OC1=O`, the In vitro activity result in assay [1] is “inactive”. On the same count and under the same terms, with `COc1ccc(C(=O)N2CCCc3cc(C4=NNC(=O)SC4C)ccc32)cc1OC` (stereo not drawn) the entry was “inactive”; with `CCCSc1cc(C)c(C(=O)N=C(N)N)cc1S(C)(=O)=O`, “inactive”.

In the case of `CCCCc1nc2ccn(CC(=O)N3CCCCC3)c(=O)c2n1Cc1ccc(-c2ccccc2S(=O)(=O)NC(=O)OCc2ccccc2)cc1F`, the In vitro activity entry in assay [1] was “inactive”. For the compound `COc1cc(OC)cc(-c2cn3cc(C(=O)NCCc4c(OC)cc(OC)cc4OC)sc3n2)c1`, the In vitro activity entry in assay [1] is “inactive”. The same measure, in the same setting: with `O=C(C1CCCCC1)N1CC(=O)N2CCc3ccccc3[C@H]2C1` the entry was “inactive”. Still for that read-out and setting: under `COCc1cc(-c2nc(-c3ccc(CN(C)CCC(=O)O)cc3)no2)ccc1-c1ccccc1C` stands “inactive”. In the case of `O=C(O)c1ccc(-c2nc(NCc3ccccc3)c3c4c(sc3n2)CCCC4)cc1`, the In vitro activity result in assay [1] was “inactive”. On to `CC1SC(=O)NN=C1c1ccc2c(c1)CCCN2` (stereo not drawn), for which, in assay [1], the In vitro activity entry is “inactive”. The same measure, in the same setting: with `Cc1sc2nc(N3CCC(C(=O)O)CC3)nc(NCc3ccc4c(c3)OCO4)c2c1Cl` the entry was “inactive”; with `COCc1cc(-c2nc(-c3cccc(CN(C)CC(=O)O)c3)no2)ccc1-c1cccc(F)c1C`, “inactive”. Turning to `Cc1ccc(-c2ccccc2)cc1C(=O)N=C(N)N`, in assay [1], the In vitro activity result was “inactive”. Regarding `Cn1nc(O[C@@H]2c3cc(C#N)ccc3OC(C)(C)[C@H]2O)ccc1=O`, the In vitro activity entry in assay [1] is “inactive”. Consider `Cc1ccccc1-c1ccc(-c2nc(-c3ccc(CN(C)CCC(=O)O)c(F)c3)no2)cc1C(F)(F)F`, for which the In vitro activity entry in assay [1] is “inactive”. On the same count and under the same terms, with `CCCN1CCC2(CC1)OC(=O)C(C)=C2C(=O)N1CCc2ccc(C(F)(F)F)cc2C1` the entry was “inactive”; with `CCCc1nn(C)c2c(=O)[nH]c(-c3cc(S(=O)(=O)Oc4cccnc4)ccc3OCC)nc12`, “inactive”; with `O=C(O)c1ccc2[nH]cc(CCCCN3CC=C(c4ccccc4)CC3)c2c1`, “inactive”. Same read-out and setting: under `Cc1nc2c3c(nn2c(C)c1Cl)CN(C(=O)c1ccc(F)cc1OC1C[C@H]2COC[C@H](C1)N2C)C3` (stereo partly drawn) stands “inactive”. With `COc1cc(OC)cc(-c2cn3cc(C(=O)NCCc4ccc(OC)cc4OC)ccc3n2)c1`, in assay [1], the In vitro activity result is “inactive”.

The values above are taken from ChEMBL document CHEMBL5441142, “Probing the Merck KGaA Open Global health library for novel starting points for anti-schistosomal drug discovery” (2024).
